Test results taken from patent US11033539B2, “Compounds of formulas (VII), (VIII), (IX), (XI), (XII), (XIII), and (XIV) as muscarinic receptor 4(M4) antagonists for treating neurological diseases” (Neurocrine Biosciences, Inc., priority 2015, dated 2021).
pKi: −log10 of the molar value.

Key:
[1] = molecular target: human M4 receptor (Homo sapiens (Human), UniProt P08173); assay: Radioligand (tritiated N-methylscopolamine) binding assay, M4; conditions: Ki against the M4 receptor; membranes from CHO cells expressing human M4; tritiated N-methylscopolamine 1.5 nM; read-out: Ki
Chain of human M4 receptor (P08173 whole entry): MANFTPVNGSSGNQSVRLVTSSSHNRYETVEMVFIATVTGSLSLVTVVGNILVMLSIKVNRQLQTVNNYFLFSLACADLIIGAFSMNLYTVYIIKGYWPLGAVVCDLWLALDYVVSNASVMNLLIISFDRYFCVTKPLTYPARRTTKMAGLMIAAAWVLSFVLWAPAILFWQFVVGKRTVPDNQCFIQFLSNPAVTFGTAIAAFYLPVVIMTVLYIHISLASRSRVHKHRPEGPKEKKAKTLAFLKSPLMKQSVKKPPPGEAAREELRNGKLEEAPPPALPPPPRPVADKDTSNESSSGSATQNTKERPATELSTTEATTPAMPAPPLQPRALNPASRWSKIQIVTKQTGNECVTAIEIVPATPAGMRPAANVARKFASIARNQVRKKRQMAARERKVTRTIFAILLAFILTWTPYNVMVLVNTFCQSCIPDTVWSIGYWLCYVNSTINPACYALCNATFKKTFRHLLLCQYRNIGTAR
Summary of the method: (§1)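 Membranes from CHO cells expressing the receptor were incubated with 1.5 nM radioligand and twelve compound concentrations (10 μM to […]) for 90 min at 37 °C in 50 mM HEPES, 100 mM NaCl, 5 mM MgCl2, 1 mM EDTA, pH 7.4. Bound radioligand was collected by filtration and counted, and Ki was derived from inhibition.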

[2] = molecular target: human M1 receptor (Homo sapiens (Human), UniProt P11229); assay: Radioligand (tritiated N-methylscopolamine) binding assay, M1; conditions: CHO cell membranes expressing human M1; 1.5 nM tritiated N-methylscopolamine; 90 min, 37° C.; read-out: Ki against M1 receptor (Table 21, M1)
Chain of human M1 receptor (P11229 whole entry): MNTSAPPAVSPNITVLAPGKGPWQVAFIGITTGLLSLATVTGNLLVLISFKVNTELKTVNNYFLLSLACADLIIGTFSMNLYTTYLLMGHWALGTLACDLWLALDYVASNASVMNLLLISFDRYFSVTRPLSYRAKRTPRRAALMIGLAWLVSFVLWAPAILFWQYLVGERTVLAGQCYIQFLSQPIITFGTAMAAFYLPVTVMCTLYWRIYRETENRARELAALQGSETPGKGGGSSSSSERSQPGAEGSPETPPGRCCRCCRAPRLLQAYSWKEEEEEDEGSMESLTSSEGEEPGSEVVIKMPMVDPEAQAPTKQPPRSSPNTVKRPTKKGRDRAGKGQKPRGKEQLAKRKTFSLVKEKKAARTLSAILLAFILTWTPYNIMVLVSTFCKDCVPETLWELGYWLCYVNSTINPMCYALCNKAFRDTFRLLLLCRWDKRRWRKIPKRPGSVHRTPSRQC
Summary of the method: as §1

[3] = molecular target: human M5 receptor (Homo sapiens (Human), UniProt P08912); assay: Radioligand (tritiated N-methylscopolamine) binding assay, M5; conditions: CHO cell membranes expressing human M5; 1.5 nM tritiated N-methylscopolamine; 90 min, 37° C.; read-out: Ki against M5 receptor (Table 21, M5)
Chain of human M5 receptor (P08912 whole entry): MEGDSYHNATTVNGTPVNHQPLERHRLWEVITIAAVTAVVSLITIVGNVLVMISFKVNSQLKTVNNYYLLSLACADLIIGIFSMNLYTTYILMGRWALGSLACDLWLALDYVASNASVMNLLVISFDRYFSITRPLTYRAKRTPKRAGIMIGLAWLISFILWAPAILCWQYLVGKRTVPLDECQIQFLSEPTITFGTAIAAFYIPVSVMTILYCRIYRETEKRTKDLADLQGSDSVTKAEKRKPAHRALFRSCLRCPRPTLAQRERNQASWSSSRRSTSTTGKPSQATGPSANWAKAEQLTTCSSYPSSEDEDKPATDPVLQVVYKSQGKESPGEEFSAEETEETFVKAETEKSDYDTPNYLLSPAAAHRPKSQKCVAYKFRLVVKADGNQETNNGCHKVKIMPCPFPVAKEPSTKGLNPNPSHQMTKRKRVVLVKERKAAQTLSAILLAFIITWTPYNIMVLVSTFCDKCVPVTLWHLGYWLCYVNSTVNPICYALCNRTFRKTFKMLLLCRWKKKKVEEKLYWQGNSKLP
Summary of the method: as §1

[4] = molecular target: human M3 receptor (Homo sapiens (Human), UniProt P20309); assay: Radioligand (tritiated N-methylscopolamine) binding assay, M3; conditions: CHO cell membranes expressing human M3; 1.5 nM tritiated N-methylscopolamine; 90 min, 37° C.; read-out: Ki against M3 receptor (Table 21, M3)
Chain of human M3 receptor (P20309 whole entry): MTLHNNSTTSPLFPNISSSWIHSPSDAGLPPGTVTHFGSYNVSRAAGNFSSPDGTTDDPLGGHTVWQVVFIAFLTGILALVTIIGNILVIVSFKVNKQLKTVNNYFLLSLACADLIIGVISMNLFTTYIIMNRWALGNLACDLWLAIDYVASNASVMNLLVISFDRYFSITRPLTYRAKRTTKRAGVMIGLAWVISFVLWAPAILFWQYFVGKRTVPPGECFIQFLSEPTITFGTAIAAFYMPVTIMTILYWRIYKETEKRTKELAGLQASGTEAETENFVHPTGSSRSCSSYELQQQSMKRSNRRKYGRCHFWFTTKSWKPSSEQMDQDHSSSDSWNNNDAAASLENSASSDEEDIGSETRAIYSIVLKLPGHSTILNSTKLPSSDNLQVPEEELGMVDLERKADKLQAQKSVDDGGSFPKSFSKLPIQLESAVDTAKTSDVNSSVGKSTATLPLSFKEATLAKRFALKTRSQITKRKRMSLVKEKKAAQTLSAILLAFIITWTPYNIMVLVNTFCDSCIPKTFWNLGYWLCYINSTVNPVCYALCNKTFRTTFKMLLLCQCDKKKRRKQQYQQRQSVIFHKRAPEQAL
Summary of the method: as §1

[5] = molecular target: human M2 receptor (Homo sapiens (Human), UniProt P08172); assay: Radioligand (tritiated N-methylscopolamine) binding assay, M2; conditions: CHO cell membranes expressing human M2; 1.5 nM tritiated N-methylscopolamine; 90 min, 37° C.; read-out: Ki against M2 receptor (Table 21, M2)
Chain of human M2 receptor (P08172 whole entry): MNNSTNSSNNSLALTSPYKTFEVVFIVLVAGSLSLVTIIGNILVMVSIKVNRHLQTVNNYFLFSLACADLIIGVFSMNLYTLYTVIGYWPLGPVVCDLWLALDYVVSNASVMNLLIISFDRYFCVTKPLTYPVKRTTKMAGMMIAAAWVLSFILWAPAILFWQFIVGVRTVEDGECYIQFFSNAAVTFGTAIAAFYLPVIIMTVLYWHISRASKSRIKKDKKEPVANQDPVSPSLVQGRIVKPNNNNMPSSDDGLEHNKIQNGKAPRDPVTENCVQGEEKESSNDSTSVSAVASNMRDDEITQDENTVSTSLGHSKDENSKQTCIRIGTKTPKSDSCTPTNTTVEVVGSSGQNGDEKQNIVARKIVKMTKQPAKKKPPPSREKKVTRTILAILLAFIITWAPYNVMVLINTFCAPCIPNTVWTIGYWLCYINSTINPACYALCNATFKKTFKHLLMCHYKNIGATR
Summary of the method: as §1

pKi [1] | pKi [2] | pKi [3] | pKi [4] | pKi [5] | Compound
> 8.00 | < 6.00 | < 6.00 | < 6.00 | 6.00 to 7.00 | O=C(NCCC1CCN(Cc2ccccc2)CC1)C1CCN(c2ccc(F)c(F)c2)CC1 [10-21, N-[2-(1-benzylpiperidin-4-yl)ethyl]-1-(3,4-difluorophenyl)piperidine-4-carboxamide]
> 8.00 | 6.00 to 7.00 | < 6.00 | < 6.00 | 7.00 to 8.00 | C[C@@H]1CN(c2cc(F)c(C#N)c(F)c2)C[C@H](C)N1C(=O)NCCC1CCN(Cc2ccccc2)CC1 [22-9]
> 8.00 | 6.00 to 7.00 | < 6.00 | < 6.00 | 7.00 to 8.00 | C[C@@H]1CN(c2ncc(C(F)(F)F)cn2)CCN1C(=O)NCCC1CCN(Cc2ccc(F)cc2)CC1 [6-37, (2R)-N-(2-{1-[(4-fluorophenyl)methyl]piperidin-4-yl}ethyl)-2-methyl-4-[5-(trifluoromethyl)pyrimidin-2-yl]piperazine-1-carboxamide]
> 8.00 | 6.00 to 7.00 | < 6.00 | 6.00 to 7.00 | 7.00 to 8.00 | C[C@@H]1CN(c2cc(F)c(F)c(F)c2)CCN1C(=O)NCCC1CCN(Cc2cccc3c2OCC3)CC1 [6-3, (2R)-N-{2-[1-(2,3-dihydro-1-benzofuran-7-ylmethyl)piperidin-4-yl]ethyl}-2-methyl-4-(3,4,5-trifluorophenyl)piperazine-1-carboxamide]
> 8.00 | 6.00 to 7.00 | < 6.00 | < 6.00 | 6.00 to 7.00 | N#Cc1ccc(N2CCC(C(=O)NCCC3CCN(Cc4ccccc4)CC3)CC2)cc1OC(F)(F)F [10-13, N-[2-(1-benzylpiperidin-4-yl)ethyl]-1-[4-cyano-3-(trifluoromethoxy)phenyl]piperidine-4-carboxamide]

The next lines start with the compound.

Compound | pKi [1] | pKi [2] | pKi [3] | pKi [4] | pKi [5]
C[C@@H]1CN(c2cc(F)c(F)c(F)c2)CCN1C(=O)NCCC1CCN(Cc2ccc3[nH]ccc3c2)CC1 [6-1, (2R)-N-{2-[1-(1H-indol-5-ylmethyl)piperidin-4-yl]ethyl}-2-methyl-4-(3,4,5-trifluorophenyl)piperazine-1-carboxamide] | > 8.00 | 6.00 to 7.00 | 6.00 to 7.00 | 6.00 to 7.00 | > 8.00
C[C@@H]1CN(c2ncc(C#N)cn2)C[C@H](C)N1C(=O)NCCC1CCN(CC[Si](C)(C)C)CC1 [21-7] | > 8.00 | 7.00 to 8.00 | 6.00 to 7.00 | 7.00 to 8.00 | > 8.00
C[C@@H]1CN(c2cnc(C(F)(F)F)nc2)CCN1C(=O)NCCC1CCN(Cc2ccccc2)CC1 [4-79, (2R)-N-[2-(1-benzylpiperidin-4-yl)ethyl]-2-methyl-4-[2-(trifluoromethyl)pyrimidin-5-yl]piperazine-1-carboxamide] | > 8.00 | 6.00 to 7.00 | < 6.00 | < 6.00 | 7.00 to 8.00
C[C@@H]1CN(c2cc(F)c(F)c(F)c2)CCN1C(=O)NCCC1CCN(Cc2ccccc2)CC1CO (stereo partly drawn) [3-17, (2R)-N-{2-[1-benzyl-3-(hydroxymethyl)piperidin-4-yl]ethyl}-2-methyl-4-(3,4,5-trifluorophenyl)piperazine-1-carboxamide] | > 8.00 | < 6.00 | < 6.00 | < 6.00 | 6.00 to 7.00
C[C@@H]1CN(c2cc(F)c(OC(F)(F)F)c(F)c2)CCN1C(=O)NCCC1CCN(Cc2ccccc2)CC1 [4-60, (2R)-N-[2-(1-benzylpiperidin-4-yl)ethyl]-4-[3,5-difluoro-4-(trifluoromethoxy)phenyl]-2-methylpiperazine-1-carboxamide] | > 8.00 | 6.00 to 7.00 | 6.00 to 7.00 | 6.00 to 7.00 | 7.00 to 8.00
